Assay results reported in patent publication US7223865B2, “Chromogenic compounds, and use thereof as enzyme substrates” (Biomerieux, priority 2003, dated 2007).

Key:
[1] = test system: Yersinia enterocolitica (061); experiment: L-serine-aminopeptidase activity on gelled medium, Example 7; assay type: cell-based; details: 0.3 g/l, 18 to 24 hours
Protocol: (§1) A gelled medium comprising L-seryl-9-(4-amino-phenyl)acridine (hereinafter referred to as L-Ser-4-APA) is prepared as follows: 30 milligrams of L-Ser-4-APA are added to 4 grams of Columbia agar, that are added to 0.1 liter of distilled water and then autoclaved. This reaction medium is autoclaved at 116° C. for 20 minutes.
(§2) Microorganisms derived from the applicant's collection were seeded onto this medium using a suspension of 0.5 McFarland. The dishes were incubated at 37° C. for 24 hours. Samples of 10 μl of each suspension were cultured so as to produce colonies. The colonies formed were examined visually after incubation for 18 to 24 hours.
(§3) The color of these colonies was noted before and after the addition of a drop of acetic acid, hereinafter referred to as GAA (glacial acetic acid).

[2] = test system: Enterococcus faecalis (117); experiment: as above; assay type: cell-based; details: 0.3 g/l, 18 to 24 hours
Protocol: as §1, §2, §3

Escherichia coli (009) = experiment: as above; assay type: cell-based; details: 0.3 g/l, 18 to 24 hours
Protocol: as §1, §2, §3

Candida albicans (138) = experiment: as above; assay type: cell-based; details: 0.3 g/l, 18 to 24 hours
Protocol: as §1, §2, §3

[3] = test system: Staphylococcus aureus (008); experiment: as above; assay type: cell-based; details: 0.3 g/l, 18 to 24 hours
Protocol: as §1, §2, §3

[4] = test system: Klebsiella pneumoniae (012); experiment: as above; assay type: cell-based; details: 0.3 g/l, 18 to 24 hours
Protocol: as §1, §2, §3

[5] = substrate dissolution in autoclaved Columbia agar medium; assay type: physicochemical; details: 30 milligrams with 4 grams of Columbia agar in 0.1 liter of distilled water, autoclaved at 116° C. for 20 minutes
Protocol: as §1

[6] = test system: Pseudomonas aeruginosa (NCTC 10662); experiment: t-BOC-L-alanyl-L-alanyl-L-alanyl-peptidase activity on gelled medium, Example 11; assay type: cell-based; design: key to growth: ++ means good growth; + means moderate growth; +/− means poor growth; NG means no growth
Protocol: (§4) A gelled medium comprising this substrate is prepared as follows: 30 mg of the substrate are dissolved (heating) in 10 ml of sterile distilled water. Ten ml of this solution are then added to 90 ml of Columbia agar, kept molten at 50° C.
(§5) Various strains of microorganisms derived from the NCTC collection (National Collection of Type Cultures, Colindale, UK) were seeded onto the media thus obtained according to the multipoint inoculation described in example 8 above.
(§6) The colonies formed were examined visually after incubation for 24 h and 48 h. The color and the growth of these colonies were noted.

[7] = test system: Klebsiella pneumonia (NCTC 10896); experiment: as above; assay type: cell-based; design: key to growth: ++ means good growth; + means moderate growth; +/− means poor growth; NG means no growth
Protocol: as §4, §5, §6

[8] = test system: Listeria monocytogenes (NCTC 11994); experiment: as above; assay type: cell-based; design: key to growth: ++ means good growth; + means moderate growth; +/− means poor growth; NG means no growth
Protocol: as §4, §5, §6

[9] = test system: Salmonella typhimurium (NCTC 74); experiment: as above; assay type: cell-based; design: key to growth: ++ means good growth; + means moderate growth; +/− means poor growth; NG means no growth
Protocol: as §4, §5, §6

[10] = test system: Burkholderia cepacia (NCTC 10743); experiment: as above; assay type: cell-based; design: key to growth: ++ means good growth; + means moderate growth; +/− means poor growth; NG means no growth
Protocol: as §4, §5, §6

[11] = test system: Enterococcus faecalis (NCTC 12697); experiment: as above; assay type: cell-based; design: key to growth: ++ means good growth; + means moderate growth; +/− means poor growth; NG means no growth
Protocol: as §4, §5, §6

[12] = test system: Staphylococcus aureus (NCTC 11939); experiment: as above; assay type: cell-based; design: key to growth: ++ means good growth; + means moderate growth; +/− means poor growth; NG means no growth
Protocol: as §4, §5, §6

[13] = test system: Salmonella poona (NCTC 4840); experiment: as above; assay type: cell-based; design: key to growth: ++ means good growth; + means moderate growth; +/− means poor growth; NG means no growth
Protocol: as §4, §5, §6

[14] = test system: Shigella sonnei (NCTC 9774); experiment: as above; assay type: cell-based; design: key to growth: ++ means good growth; + means moderate growth; +/− means poor growth; NG means no growth
Protocol: as §4, §5, §6

[15] = test system: Enterobacter cloacae (NCTC 11936); experiment: as above; assay type: cell-based; design: key to growth: ++ means good growth; + means moderate growth; +/− means poor growth; NG means no growth
Protocol: as §4, §5, §6

[16] = test system: Escherichia coli O157 (NCTC 12079); experiment: as above; assay type: cell-based; design: key to growth: ++ means good growth; + means moderate growth; +/− means poor growth; NG means no growth
Protocol: as §4, §5, §6

[17] = test system: Enterococcus faecium (NCTC 7171); experiment: as above; assay type: cell-based; design: key to growth: ++ means good growth; + means moderate growth; +/− means poor growth; NG means no growth
Protocol: as §4, §5, §6

[18] = test system: Serratia marcescens (NCTC 10211); experiment: as above; assay type: cell-based; design: key to growth: ++ means good growth; + means moderate growth; +/− means poor growth; NG means no growth
Protocol: as §4, §5, §6

[19] = test system: Staphylococcus aureus (NCTC 6571); experiment: as above; assay type: cell-based; design: key: ++ means good growth; + means moderate growth; +/− means poor growth; NG means no growth
Protocol: as §4, §5, §6

[20] = test system: Enterococcus faecalis (NCTC 755); experiment: as above; assay type: cell-based; design: key: ++ means good growth; + means moderate growth; +/− means poor growth; NG means no growth
Protocol: as §4, §5, §6

With `N[C@@H](CO)C(=O)Nc1ccc(-c2c3ccccc3nc3ccccc23)cc1` [L-Ser-4-APA, L-Seryl-9-(4-aminophenyl)acridine] the Color ([1]; after GAA) was “pale orange”, the Intensity ([1]; after GAA) was 2 and the Color ([1]; before GAA) was “cream”. The Color ([2]; after GAA) was “cream”, the Color ([2]; before GAA) was “cream” and the Color (Escherichia coli (009); after GAA) was “pale orange”. The Intensity (Escherichia coli (009); after GAA) was 2, the Color (Escherichia coli (009); before GAA) was “cream” and the Color (Candida albicans (138); after GAA) was “cream”. The Color (Candida albicans (138); before GAA) was “cream”, the Color ([3]; after GAA) was “cream” and the Color ([3]; before GAA) was “cream”. For the same compound, the Color ([4]; after GAA) was “pale orange”, the Intensity ([4]; after GAA) was 2 and the Color ([4]; before GAA) was “cream”. The “substrate in solution in the medium” value [5] was “Most of the substrate is in solution”.
In the case of `C[C@H](NC(=O)OC(C)(C)C)C(=O)N[C@@H](C)C(=O)N[C@@H](C)C(=O)Nc1ccc(-c2c3ccccc3[n+](C)c3ccccc23)cc1.[Cl-]` [t-BOC-L-Ala-Ala-Ala-4-AP-10-MA, t-BOC-L-alanyl-L-alanyl-L-alanyl-9-(4-aminophenyl)-10-methylacridine], the color of colonies ([6]; 24 h) is reported as “Pale orange”, the growth ([6]; 24 h) is reported as “(++)” and the color of colonies ([6]; 48 h) is reported as “Pale Orange”. The growth ([6]; 48 h) was “++”, the color of colonies ([7]; 24 h) was “Orange” and the growth ([7]; 24 h) was “++”. For the same compound, the color of colonies ([7]; 48 h) was “Orange”, the growth ([7]; 48 h) was “++” and the color of colonies ([8]; 24 h) was “Colorless”. The growth ([8]; 24 h) was “+/−”, the color of colonies ([8]; 48 h) was “Colorless” and the growth ([8]; 48 h) was “+”. The color of colonies ([9]; 24 h) was “Pale orange”, the growth ([9]; 24 h) was “(++)” and the color of colonies ([9]; 48 h) was “Pale orange”. For the same compound, the growth ([9]; 48 h) was “++”, the color of colonies ([10]; 24 h) was “Orange” and the growth ([10]; 24 h) was “++”. The color of colonies ([10]; 48 h) was “Orange”, the growth ([10]; 48 h) was “++” and the color of colonies ([11]; 24 h) was “Colorless”. The growth ([11]; 24 h) was “+/−”, the color of colonies ([11]; 48 h) was “Colorless” and the growth ([11]; 48 h) was “+/−”. For the same compound, the color of colonies ([12]; 24 h) was “Colorless”, the growth ([12]; 24 h) was “+” and the color of colonies ([12]; 48 h) was “Colorless”. For the same compound, the growth ([12]; 48 h) was “+”, the color of colonies ([13]; 24 h) was “Pale orange” and the growth ([13]; 24 h) was “(++)”. The color of colonies ([13]; 48 h) was “Pale orange”, the growth ([13]; 48 h) was “++” and the color of colonies ([14]; 24 h) was “Pale orange”. For the same compound, the growth ([14]; 24 h) was “(++)”, the color of colonies ([14]; 48 h) was “Pale orange” and the growth ([14]; 48 h) was “++”. The color of colonies ([15]; 24 h) was “Orange”, the growth ([15]; 24 h) was “++” and the color of colonies ([15]; 48 h) was “Orange”. For the same compound, the growth ([15]; 48 h) was “++”, the color of colonies ([16]; 24 h) was “Pale orange” and the growth ([16]; 24 h) was “(++)”. The color of colonies ([16]; 48 h) was “Pale orange”, the growth ([16]; 48 h) was “++” and the color of colonies ([17]; 24 h) was “Colorless”. For the same compound, the growth ([17]; 24 h) was “+/−”, the color of colonies ([17]; 48 h) was “Colorless” and the growth ([17]; 48 h) was “++”. For the same compound, the color of colonies ([18]; 24 h) was “Orange”, the growth ([18]; 24 h) was “++” and the color of colonies ([18]; 48 h) was “Orange”. For the same compound, the growth ([18]; 48 h) was “++”, the growth ([19]; 24 h) was “NG” and the growth ([19]; 48 h) was “NG”. For the same compound, the growth ([20]; 24 h) was “NG” and the growth ([20]; 48 h) was “NG”.
